Measurements published in patent US20210228523A1, “MODULATORS OF SESTRIN-GATOR2 INTERACTION AND USES THEREOF” (Navitor Pharmaceuticals, Inc., priority 2017, published 2021).

Test system: mTORC1 signaling pathway
Assay: Western blot of mTORC1 substrates in crude synaptosomes from rat prefrontal cortex
Type: in vivo
Settings: Example B, 1 hr after administration
Method: Study Design. Forty-eight (48) male Sprague Dawley rats weighing between 175 and 200 g were randomized into 8 study groups (n=6/group), following a 5-day acclimation period. On study day 0, rats in Groups 3 and 7 received a single dose of Sal while Groups 4 and 8 received a single dose of Ket (10 mg/kg) each by i.p. injection. The rats in Groups 1 and 5 received a single dose of Veh while Groups 2 and 6 received a single dose of NV-5138 (160 mg/kg) each by oral gavage. One hour after dosing, rats in Groups 1-4 were sacrificed by conscious decapitation and followed by collection of the PFC. Crude synaptosomes were prepared from the PFC and three mTORC1 substrates, pmTOR, pp70S6K and p4E-BP1, and corresponding total protein loading controls (mTOR, p70S6K, and GAPDH) were quantitated by WB. Twenty-four hours after dosing, rats in Groups 5-8 were sacrificed by conscious decapitation and collection of the PFC. Crude synaptosomes were prepared from the PFC and the synaptic proteins (GluR1 and PSD95), as well as the total protein loading control (GAPDH), were quantitated by WB.
Formulation of Ket and NV-5138 for Administration. Ket (Sigma, cat #K1884) was dissolved in Sal at a concentration of 10 mg/mL. A volume of 1 mL/kg was injected i.p. NV-5138 (Navitor, Lot #06) was prepared by dissolving in Veh at a concentration of 50 mg/mL. The dosing volume based on the weight of the animal (3.2 mL/kg) was administered by oral gavage. Test articles were prepared the day of dosing.
Prefrontal Cortex Synaptosome Preparations. The brain was dissected from rats in all groups (n=6/group) and rinsed in PBS. The PFC was collected as shown in FIG. 6 and homogenized at 4° C. in homogenization buffer (0.32 M sucrose, 20 mM HEPES at pH 7.4, 1 mM EDTA, 5 mM NaF, 1 mM NaVO3 and protease inhibitor cocktail (Roche; Ser. No. 19/543,200)). The homogenate was centrifuged for 10 min at 2,800 rpm at 4° C. after which the supernatant was removed and re-centrifuged at 12,000 rpm for 10 min at 4° C. The resulting pellet containing crude synaptosomes was re-suspended in Lysis buffer (50 mM Tris-HCl (pH 7.5), 150 mM NaCl, 1% Triton X-100, 0.1% SDS, 2 mM, EDTA, 1 mM NaVO3, 5 mM NaF and protease inhibitor cocktail) and sonicated on ice for 20 s at 50% amplitude. The protein concentration was determined by Bradford assay and all samples were mixed with loading buffer (60 mM Tris-HCl pH 6.8, 20 mM DTT, 2% SDS, 10% glycerol, 5% β-mercaptoethanol and 0.01% Bromophenol blue) and stored at -20° C. until WB analysis.
Western Blot Analysis: Western blot analysis for GluR1, PSD95 and GAPDH was performed as previously described. Briefly, synaptosomes preparations (15 μg total protein) were loaded into 10-15% SDS PAGE gel for electrophoresis and transferred to a polyvinylidene difluoride (PVDF) membrane in transfer buffer (10× premixed electrophoresis buffer contains 25 mM Tris, 192 mM glycine, pH 8.3; Bio-Rad). […] After final three washes with PBS-T buffer, bands were detected using enhanced chemiluminescence. […]

Compound	levels of p4E-BP1 in crude PFC synaptosomes (NV-5138 160 mg/kg oral)	levels of pmTOR in crude PFC synaptosomes (NV-5138 160 mg/kg oral)	levels of pp70S6K in crude PFC synaptosomes (NV-5138 160 mg/kg oral)	levels of p4E-BP1 in crude PFC synaptosomes (Ket 10 mg/kg i.p.)	levels of pmTOR in crude PFC synaptosomes (Ket 10 mg/kg i.p.)
CC(C)(C[C@H](N)C(=O)O)C(F)F [NV-5138]	significantly increased	significantly increased	significantly increased		
CNC1(c2ccccc2Cl)CCCCC1=O (centres unmarked) [Ket, ketamine, reference compound]				significantly increased	significantly increased
